Reference: ChEMBL document CHEMBL4715876 (J Med Chem, 2020)
Values after ≈ are worked out from the molar mass of the structure shown.

How the values were obtained:
[1] = AUClast in BALB/C mouse at 10 mg/kg,po measured upto 24 hrs by LC-MS analysis; format: ADME, organism-based; parameters: route oral, dose 10 mg/kg, time <= 24; conditions: in vivo
[2] = Cmax in BALB/C mouse at 1 mg/kg, iv measured upto 24 hrs by LC-MS analysis; format: ADME, organism-based; parameters: route intravenous, dose 1 mg/kg, time <= 24; conditions: in vivo
[3] = Tmax in BALB/C mouse at 1 mg/kg, iv measured upto 24 hrs by LC-MS analysis; format: ADME, organism-based; conditions: in vivo
[4] = Tmax in BALB/C mouse at 10 mg/kg, po measured upto 24 hrs by LC-MS analysis; format: ADME, organism-based; conditions: in vivo
[5] = Cmax in BALB/C mouse at 10 mg/kg,po measured upto 24 hrs by LC-MS analysis; format: ADME, organism-based; parameters: route oral, dose 10 mg/kg, time <= 24; conditions: in vivo
[6] = Oral bioavailability in BALB/C mouse at 10 mg/kg measured upto 24 hrs by LC-MS analysis; format: ADME, organism-based; conditions: in vivo
[7] = Volume of distribution at steady state in BALB/C mouse at 1 mg/kg, iv measured upto 24 hrs by LC-MS analysis; format: ADME, organism-based; conditions: in vivo, read-out: Vdss
[8] = AUClast in BALB/C mouse at 1 mg/kg, iv measured upto 24 hrs by LC-MS analysis; format: ADME, organism-based; parameters: route intravenous, dose 1 mg/kg, time <= 24; conditions: in vivo
[9] = Lipophilicity, log D of compound at pH 7.4; format: physicochemical; conditions: buffer
[10] = Solubility of the compound; format: physicochemical
[11] = Oral bioavailability in BALB/C mouse at 30 mg/kg measured upto 24 hrs by LC-MS analysis; format: ADME, organism-based; conditions: in vivo
[12] = Drug uptake in CB.17 SCID mouse tumor xenografted with SUDHL-6 cells assessed as effect on body weight at 5 mg/kg, po once daily for 15 days; format: ADME, organism-based, Neoplasm; conditions: time 15 day, read-out: Drug uptake
[13] = Cmax in Sprague-Dawley rat at 3 mg/kg, iv measured upto 24 hrs by LC-MS/MS analysis; format: ADME, organism-based; parameters: route intravenous, dose 3 mg/kg, time <=24; conditions: in vivo
[14] = Oral bioavailability in Beagle dog at 1 mg/kg measured upto 24 hrs by LC-MS/MS analysis; format: ADME, organism-based, Canis lupus familiaris; conditions: in vivo
in vivo = conditions: BALB/C, mouse, po, 30 mg/kg
[15] = Tmax in BALB/C mouse at 30 mg/kg, po measured upto 24 hrs by LC-MS analysis; format: ADME, organism-based; conditions: in vivo
[16] = Plasma concentration in CB.17 SCID mouse xenografted with TMD-8 cells at 3 mg/kg, po once daily for 19 days; format: ADME, organism-based; conditions: time 19 day
[17] = Tmax in Sprague-Dawley rat at 3 mg/kg, iv measured upto 24 hrs by LC-MS/MS analysis; format: ADME, organism-based; conditions: in vivo
[18] = Cmax in BALB/C mouse at 30 mg/kg,po measured upto 24 hrs by LC-MS analysis; format: ADME, organism-based; parameters: route oral, dose 30 mg/kg, time <= 24; conditions: in vivo
[19] = Volume of distribution at steady state in BALB/C mouse at 10 mg/kg, iv measured upto 24 hrs by LC-MS analysis; format: ADME, organism-based; conditions: in vivo, read-out: Vdss
[20] = Drug uptake in CB.17 SCID mouse tumor xenografted with TMD-8 cells at 3 mg/kg, po once daily for 19 days; format: ADME, organism-based, Neoplasm; conditions: time 19 day, read-out: Drug uptake
[21] = Plasma concentration in CB.17 SCID mouse tumor xenografted with SUDHL-6 cells assessed as effect on body weight at 5 mg/kg, po once daily for 15 days; format: ADME, organism-based; conditions: time 15 day
[22] = Plasma concentration in CB.17 SCID mouse xenografted with OCI-LY10 cells at 3 mg/kg, po once daily for 24 days; format: ADME, organism-based; conditions: time 24 day
[23] = Cmax in Sprague-Dawley rat at 3 mg/kg, po measured upto 24 hrs by LC-MS/MS analysis; format: ADME, organism-based; parameters: route oral, dose 3 mg/kg, time <=24; conditions: in vivo
[24] = Volume of distribution at steady state in Sprague-Dawley rat at 3 mg/kg, iv measured upto 24 hrs by LC-MS/MS analysis; format: ADME, organism-based; conditions: in vivo, read-out: Vdss
[25] = Drug uptake in CB.17 SCID mouse tumor xenografted with OCI-LY10 cells at 3 mg/kg, po once daily for 24 days; format: ADME, organism-based, Neoplasm; conditions: time 24 day, read-out: Drug uptake
[26] = Tmax in Beagle dog at 1 mg/kg, po measured upto 24 hrs by LC-MS/MS analysis; format: ADME, organism-based, Canis lupus familiaris; conditions: in vivo
[27] = Tmax in Sprague-Dawley rat at 3 mg/kg, po measured upto 24 hrs by LC-MS/MS analysis; format: ADME, organism-based; conditions: in vivo
[28] = AUClast in BALB/C mouse at 10 mg/kg, iv measured upto 24 hrs by LC-MS analysis; format: ADME, organism-based; parameters: route intravenous, dose 10 mg/kg, time <= 24; conditions: in vivo
[29] = Cmax in Beagle dog at 1 mg/kg, po measured upto 24 hrs by LC-MS/MS analysis; format: ADME, organism-based, Canis lupus familiaris; parameters: route oral, dose 1 mg/kg, time <=24; conditions: in vivo
[30] = Tmax in Beagle dog at 1 mg/kg, iv measured upto 24 hrs by LC-MS/MS analysis; format: ADME, organism-based, Canis lupus familiaris; conditions: in vivo

SMILES: Cc1c([C@H](C)Nc2nc(N)nc(N)c2C#N)c(-c2ccccc2)c(=O)n2cc(F)ccc12
- AUC(0-t) at 24 h [1]: 2400 nM·h
- Cmax [2]: 1.3 µM
- Tmax [3]: 4.8 min
- Tmax [4]: 30 min
- Cmax [5]: 2.1 µM
- bioavailability [6]: 30%
- Vd [7]: 1.7 L/kg
- AUC(0-t) at 24 h [8]: 800 nM·h

SMILES: C[C@H](Nc1nc(N)nc(N)c1C#N)c1cc2ccc(F)cn2c(=O)c1-c1ccccc1
- AUC(0-t) at 24 h [1]: 3500 nM·h
- logD [9]: 1.26
- Cmax [2]: 2.3 µM
- Tmax [3]: 4.8 min
- Tmax [4]: 30 min
- Cmax [5]: 2.6 µM
- bioavailability [6]: 22%
- Vd [7]: 1.3 L/kg
- solubility [10]: 691 µM (≈ 287 µg/mL)
- AUC(0-t) at 24 h [8]: 1600 nM·h

SMILES: CC[C@H](Nc1ncnc2[nH]cnc12)c1nc2cccc(F)c2c(=O)n1-c1ccccc1 [IDELALISIB]
- bioavailability [11]: 37.6%
- concentration at 360 h [12]: 0.08 µM
- Cmax [13]: 3.46 µM
- bioavailability [14]: 48%
- AUC(0-t) at 24 h (in vivo): 9250 nM·h
- Tmax [15]: 15 min
- concentration at 456 h [16]: 0.02 µM
- Tmax [17]: 4.8 min
- Cmax [18]: 6.98 µM
- Vd [19]: 0.73 L/kg
- concentration at 456 h [20]: 0.14 µM
- concentration at 360 h [21]: 0.03 µM
- concentration at 576 h [22]: 0.04 µM
- Cmax [23]: 0.31 µM
- Vd [24]: 2.49 L/kg
- concentration at 576 h [25]: 0.15 µM
- Tmax [26]: 60 min
- Tmax [27]: 180 min
- AUC(0-t) at 24 h [28]: 7430 nM·h
- Cmax [29]: 0.5 µM
- Tmax [30]: 4.8 min
